According to patent US10041937B2, “Macrophage identification agent, and identification method, sorting method, evaluation method, screening method and kit using the macrophage identifier agent” (CANON KABUSHIKI KAISHA, priority 2013, dated 2018):
“Also recorded” adds a separate entry of the source.

test system: M1 macrophages and M2 macrophages differentiated from mouse bone marrow cells; experiment: Subtype identification by staining and flow cytometry of M1 and M2 macrophages differentiated from mouse bone marrow cells; format: cell-based, Balb/c mouse; details: M1 vs M2 macrophages from mouse bone marrow cells; general formula (6) dyes (Table 7)
Experimental: The culture of subtypes was performed according to a protocol described in NPL 7. Specifically, bone marrow cells collected from the femur of a Balb/c mouse of 8 to 10 weeks old were dispersed to a concentration of 1×10^6/mL in an IMDM containing 20% FBS and 1% P/S, and 1×10^7 cells were seeded in a 100 mm dish. After further adding an M-CSF (manufactured by Pepro Tech) thereto to a concentration of 50 ng/mL, the cells were incubated for 3 to 4 days in the presence of 5% CO2 at 37° C., so as to differentiate macrophage precursor cells to macrophages. After exchanging the medium, the M-CSF was added to a concentration of 50 ng/mL, and the incubation was performed for further 3 to 4 days in the presence of 5% CO2 at 37° C., and then, the resulting cells were differentiated to macrophage. By adding 200 ng of interferon-γ and 1 μg of […] (both manufactured by Pepro Tech) to the IMDM containing 5% FBS and 1% P/S, the cells were differentiated to the subtype M1. Besides, by adding 100 ng of IL-4 to the IMDM containing 5% FBS and 1% P/S, the cells were differentiated to the subtype M2. After performing the incubation for further 3 days in the presence of 5% CO2 at 37° C., the resultant was rinsed with PBS, and PBS containing 0.25% trypsin and 1 mM EDTA (ethylenediaminetetraacetic acid) was used for collecting, from the dish, the macrophages having been differentiated to the subtypes M1 and M2.
Thereafter, the tube was centrifuged at 180 G for 10 minutes to remove the supernatant, a dye for identifying dead cells (aqua fluorescent reactive dye, manufactured by Invitrogen; which is hereinafter sometimes abbreviated as aqua) was added thereto, and the resultant was incubated at 4° C. for 10 minutes. Subsequently, the tube was centrifuged at 180 G for 10 minutes to remove the supernatant, cells were suspended in a FACS buffer to be analyzed by using FACSCanto (trademark) II flow cytometry apparatus manufactured by BD.
The analysis was performed on a cell population showing a low signal for the aqua, so as to analyze a cell population from which dead cells were eliminated. […] A histogram was prepared by plotting fluorescence intensity obtained in the FITC channel on the abscissa and plotting the number of cells at each fluorescence intensity on the ordinate, which is shown in FIG. 2.
Histograms were prepared by plotting fluorescence intensities obtained in the respective channels on the abscissa and plotting the numbers of cells at each fluorescence intensity on the ordinate. A difference between a fluorescence intensity (FM1) at a peak top of the histogram of the M1 macrophage and a fluorescence intensity (FM2) at a peak top of the histogram of the M2 macrophage is divided by a sum of a peak width (WM1) of the histogram of the M1 macrophage and a peak width (WM2) of the histogram of the M2 macrophage, so as to obtain a resolution R, which was used as an index of the identification ability for a subtype (see the following expression (1)). Resolution R=|FM1−FM2|/(WM1+WM2) Expression (1)

Row | SMILES | Resolution ratio R
1 | CN1/C(=C\C=C\C2=[N+](C)c3ccccc3C2(C)C)C(C)(C)c2ccccc21 [(95)] | 0.421
2 | CCN1/C(=C\C=C\c2oc3ccccc3[n+]2CC)Oc2ccccc21 [(98)] | 0.507
3 | CCN1/C(=C\C=C\C2=[N+](CC)c3ccccc3C23CCCCC3)C2(CCCCC2)c2ccccc21 [(99)] | 0.673
4 | CCN1/C(=C\C=C\c2sc3ccccc3[n+]2CC)Sc2ccccc21 [(100)] | 0.372
5 | CCN1/C(=C\C=C\c2ccc3ccccc3[n+]2CC)C=Cc2ccccc21 [(104)] | 0.698
6 | CCN1C(=C/C=C/c2n(CC)c3cc(Cl)c(Cl)cc3[n+]2CC)N(CC)c2cc(Cl)c(Cl)cc21 [compound (103)] | 0.597
7 | CN1/C(=C/C2=C([O-])C(=C/C3=[N+](C)c4ccccc4C3(C)C)/C2=O)C(C)(C)c2ccccc21 [compound (113)] | 0.857

same assay, conditions: M1 vs M2 macrophages from mouse bone marrow cells; general formula (10) dyes (Table 8)

Row | SMILES | Resolution ratio R
8 | CCN(CC)c1ccc2cc(-c3nc4ccccc4n3C)c(=O)oc2c1 [(119)] | 0.273
9 | CCN(CC)c1ccc2cc(-c3nc4cc(Cl)ccc4s3)c(=O)oc2c1 [(122)] | 0.377
10 | CCN(CC)c1ccc2cc(-c3nc4cc(C(=O)O)ccc4o3)c(=O)oc2c1 [(127)] | 0.381

same assay, conditions: class based on resolution R; general formula (6) dyes (Table 7)

Row | SMILES | Evaluation of macrophage subtype identification
11 | CN1/C(=C\C=C\C2=[N+](C)c3ccccc3C2(C)C)C(C)(C)c2ccccc21 [(95)] | B (the compound is good in the subtype identification (namely, the resolution R is 0.15 or more and less than 0.5))
12 | CCN1/C(=C\C=C\c2oc3ccccc3[n+]2CC)Oc2ccccc21 [(98)] | A (The compound is very good in the subtype identification (namely, the resolution R is 0.5 or more))
13 | CCN1/C(=C\C=C\C2=[N+](CC)c3ccccc3C23CCCCC3)C2(CCCCC2)c2ccccc21 [(99)] | A (The compound is very good in the subtype identification (namely, the resolution R is 0.5 or more))
14 | CCN1/C(=C\C=C\c2sc3ccccc3[n+]2CC)Sc2ccccc21 [(100)] | B (the compound is good in the subtype identification (namely, the resolution R is 0.15 or more and less than 0.5))
15 | CCN1/C(=C\C=C\c2ccc3ccccc3[n+]2CC)C=Cc2ccccc21 [(104)] | A (The compound is very good in the subtype identification (namely, the resolution R is 0.5 or more))
16 | CCN1C(=C/C=C/c2n(CC)c3cc(Cl)c(Cl)cc3[n+]2CC)N(CC)c2cc(Cl)c(Cl)cc21 [compound (103)] | A (The compound is very good in the subtype identification (namely, the resolution R is 0.5 or more))
17 | CN1/C(=C/C2=C([O-])C(=C/C3=[N+](C)c4ccccc4C3(C)C)/C2=O)C(C)(C)c2ccccc21 [compound (113)] | A (The compound is very good in the subtype identification (namely, the resolution R is 0.5 or more))

same assay, conditions: class based on resolution R; general formula (10) dyes (Table 8)

Row | SMILES | Evaluation of macrophage subtype identification
18 | CCN(CC)c1ccc2cc(-c3nc4ccccc4n3C)c(=O)oc2c1 [(119)] | B (the compound is good in the subtype identification (namely, the resolution R is 0.15 or more and less than 0.5))
19 | CCN(CC)c1ccc2cc(-c3nc4cc(Cl)ccc4s3)c(=O)oc2c1 [(122)] | B (the compound is good in the subtype identification (namely, the resolution R is 0.15 or more and less than 0.5))
20 | CCN(CC)c1ccc2cc(-c3nc4cc(C(=O)O)ccc4o3)c(=O)oc2c1 [(127)] | B (the compound is good in the subtype identification (namely, the resolution R is 0.15 or more and less than 0.5))

same assay, conditions: mouse bone marrow-derived M1 macrophages; channel listed per compound; general formula (6) dyes (Table 7)

Row | SMILES | Peak position of M1 macrophage
21 | CN1/C(=C\C=C\C2=[N+](C)c3ccccc3C2(C)C)C(C)(C)c2ccccc21 [(95)] | 71.57
22 | CCN1/C(=C\C=C\c2oc3ccccc3[n+]2CC)Oc2ccccc21 [(98)] | 21.95
23 | CCN1/C(=C\C=C\C2=[N+](CC)c3ccccc3C23CCCCC3)C2(CCCCC2)c2ccccc21 [(99)] | 191.14
24 | CCN1/C(=C\C=C\c2sc3ccccc3[n+]2CC)Sc2ccccc21 [(100)] | 16.41
25 | CCN1/C(=C\C=C\c2ccc3ccccc3[n+]2CC)C=Cc2ccccc21 [(104)] | 95.26
26 | CCN1C(=C/C=C/c2n(CC)c3cc(Cl)c(Cl)cc3[n+]2CC)N(CC)c2cc(Cl)c(Cl)cc21 [compound (103)] | 2.97
27 | CN1/C(=C/C2=C([O-])C(=C/C3=[N+](C)c4ccccc4C3(C)C)/C2=O)C(C)(C)c2ccccc21 [compound (113)] | 9.05

same assay, conditions: mouse bone marrow-derived M1 macrophages; channel listed per compound; general formula (10) dyes (Table 8)

Row | SMILES | Peak position of M1 macrophage
28 | CCN(CC)c1ccc2cc(-c3nc4ccccc4n3C)c(=O)oc2c1 [(119)] | 2.60
29 | CCN(CC)c1ccc2cc(-c3nc4cc(Cl)ccc4s3)c(=O)oc2c1 [(122)] | 142
30 | CCN(CC)c1ccc2cc(-c3nc4cc(C(=O)O)ccc4o3)c(=O)oc2c1 [(127)] | 3.99

same assay, conditions: mouse bone marrow-derived M2 macrophages; channel listed per compound; general formula (6) dyes (Table 7)

Row | SMILES | Peak position of M2 macrophage
31 | CN1/C(=C\C=C\C2=[N+](C)c3ccccc3C2(C)C)C(C)(C)c2ccccc21 [(95)] | 133.45
32 | CCN1/C(=C\C=C\c2oc3ccccc3[n+]2CC)Oc2ccccc21 [(98)] | 61.59
33 | CCN1/C(=C\C=C\C2=[N+](CC)c3ccccc3C23CCCCC3)C2(CCCCC2)c2ccccc21 [(99)] | 331.51
34 | CCN1/C(=C\C=C\c2sc3ccccc3[n+]2CC)Sc2ccccc21 [(100)] | 32.87
35 | CCN1/C(=C\C=C\c2ccc3ccccc3[n+]2CC)C=Cc2ccccc21 [(104)] | 197.19
36 | CCN1C(=C/C=C/c2n(CC)c3cc(Cl)c(Cl)cc3[n+]2CC)N(CC)c2cc(Cl)c(Cl)cc21 [compound (103)] | 8.23
37 | CN1/C(=C/C2=C([O-])C(=C/C3=[N+](C)c4ccccc4C3(C)C)/C2=O)C(C)(C)c2ccccc21 [compound (113)] | 21.39

same assay, conditions: mouse bone marrow-derived M2 macrophages; channel listed per compound; general formula (10) dyes (Table 8)

Row | SMILES | Peak position of M2 macrophage
38 | CCN(CC)c1ccc2cc(-c3nc4ccccc4n3C)c(=O)oc2c1 [(119)] | 3.94
39 | CCN(CC)c1ccc2cc(-c3nc4cc(Cl)ccc4s3)c(=O)oc2c1 [(122)] | 211
40 | CCN(CC)c1ccc2cc(-c3nc4cc(C(=O)O)ccc4o3)c(=O)oc2c1 [(127)] | 6.00

same assay, conditions: subtype strongly stained; general formula (6) dyes (Table 7)

Row | SMILES | Selectivity
41 | CCN1/C(=C\C=C\c2ccc3ccccc3[n+]2CC)C=Cc2ccccc21 [(104)] | M2

same assay, conditions: two compounds used in combination, each 1 μM

Row | SMILES | subtype more strongly stained
42 | CCN1C(=C/C=C/c2n(CC)c3cc(Cl)c(Cl)cc3[n+]2CC)N(CC)c2cc(Cl)c(Cl)cc21 [compound (103)] | the M2 macrophage shows a higher fluorescence intensity in the PE-Cy7 channel than the M1 macrophage
43 | CN1/C(=C/C2=C([O-])C(=C/C3=[N+](C)c4ccccc4C3(C)C)/C2=O)C(C)(C)c2ccccc21 [compound (113)] | the M2 macrophage shows a higher fluorescence intensity in the APC-Cy7 channel than the M1 macrophage; also recorded: the M2 macrophages are more strongly stained than the M1 macrophages
